What was measured:
[1] = Photochemical cleavage assays of incorporated nucleotide analogs (365 nm UV light, DT50); assay type: physicochemical; settings: for DT50 in 1 mM NaN3, 50 mM DTT / DT50 in 1 mM NaN3, No DTT: 365 nm UV, 0.70 W/cm^2; for DT50 values: UV photochemical cleavage experiments
Protocol: As used herein, the term “DT50” refers to the amount of time required to cleavage 50% of the base analog incorporated in the primer-template complex.
To compare the rates of photochemical cleavage between the nucleotide analogs described here, a protocol was developed to deliver a daily light intensity output of 0.70±0.01 W/cm^2 to samples, see below.
The power supply was turned on for about 30 min prior to that of the lamp and recirculation bath as described by the manufacturer. The IR liquid filter was cooled to 9° C. Light intensity was determined using a model PM100 power meter (Thorlabs), a 1000 μm pinhole (Edmund Optics), a modified 0.5 mL Eppendorf tube cut in half, and a 3-axis manual translation stage (Newport), see FIG. 5. The half cut Eppendorf tube was positioned in front of the pinhole and power meter detector head to account for the geometric shape distortion of the light as it passes through a reaction solution. The translation stage was then used to align the tube/pinhole/detector device with the highest intensity from the arc beam.
To stabilize its output, the lamp was left on for one hour prior to intensity measurements. Thereafter, the measured power was adjusted by increasing the current from the power supply. In order to achieve intensity (I) of 0.70 W/cm^2, the measured power (P) was adjusted to ˜5.5 mW, according to the equation:
[formula] where r is the radius of pinhole.
The beam was then focused by placing an 0.5 mL Eppendorf tube into the sample holder, the tube of which was modified with an internal alignment card to provide reference lines for volume heights of 10 μL and 20 μL, see FIG. 5. The reference lines enabled the beam to be centered for a given reaction volume. Beam alignment was further verified by observing the mercury arc image of the lamp produced by the rear reflector. A second alignment card was placed into the rotating sample holder to view the image, which when properly aligned using the reflector would produce an inverted arc image on the arc gap itself. This step ensured that arc hotspots were not superimposed, which could cause overheating while maintaining a power output of ˜5.5 mW. The speed of the rotating sample holder was adjusted within a range of 1,200-1,350 rpm using a Nova-Strobe DA Plus stroboscope (Monarch Instrument) by adjusting the motor's torque with an adjustment screw.
Photochemical cleavage assays: Nucleotide analogs were incorporated using 10 μL reactions, as described for the PEP assays, at a final concentration of 100 nM. […] OligoTemplate-2, oligoTemplate-5, and oligoTemplate-4 each hybridized with BODIPY-FL labeled primer-1 were used for C^7-HOMedA, C^7-HOMedG, and HOMedU analogs, respectively. OligoTemplate-8 hybridized with BODIPY-FL labeled primer-3 was used to assay HOMedC analogs. Incorporated reactions were quenched with either 1 mM sodium azide solution; 1 mM sodium azide, 50 mM DTT solution; or reagents C-G (see key in FIG. 4), exposed to 365 nm ultraviolet (UV) light for various time points using our UV deprotector, and then placed on ice.

DNA synthesis = experiment: Termination assays (incorporation and termination of DNA synthesis); assay type: biochemical; settings: 10 μM
Description: Another class of 3′-OH unblocked nucleotides has been described by Mitra et al. (2003) and Turcatti et al. (2008), which rely on steric hindrance of the bulky dye group to stop incorporation after the addition of the first nucleotide. It is noted that the substituted 2-nitrobenzyl nucleotide analogs described by Wu et al. (2007), Litosh et al. (2011), and Gardner et al., 2012 cause termination of DNA synthesis without the requirement of bulky substituents such as fluorescent dyes. A further class of 3′-unblocked nucleotides has been described by Helicos Biosciences. These nucleotides use a second nucleoside or nucleotide analog that acts as an inhibitor of DNA synthesis (Bowers et al., 2009; U.S. Pat. No. 7,476,734). A significant difference in termination properties is observed when comparing compounds of the present invention with those described by Bowers. For example, Bowers et al. described pre-steady-state kinetics employing two-base homopolymer templates, for which kpol(+2) rates were measured for all of their 3′-OH unblocked ‘virtual’ terminators. Bowers et al. conducted their termination experiments at submicromolar nucleotide concentrations (i.e., from 100 to 250 nM), termination assays. In contrast, several compounds of the present invention were performed at 10 μM over the time course of 0.5 to 20 min. […]

[2] = Table 3, reversible terminators
[3] = Table 3, reversible terminators, [a] transient product considered as cleaved product
[4] = Table 2, C^7-HOMedG analogs, average ± 1SD, triplicate

Row | SMILES | DT50 in 1 mM NaN3, 50 mM DTT [1, 2] | DT50 in 1 mM NaN3, No DTT [1, 3] | DT50 in 1 mM NaN3, 50 mM DTT [1, 4] | DT50 in 1 mM NaN3, No DTT [1, 4] | further results
1 | COc1ccc([N+](=O)[O-])c([C@@H](OCc2cn([C@H]3C[C@H](O)[C@@H](COP(=O)(O)OP(=O)(O)OP(=O)(O)O)O3)c3ncnc(N)c23)C(C)(C)C)c1 [dA.VI, 7-[(S)-1-(5-methoxy-2-nitrophenyl)-2,2-dimethyl-propyloxy]methyl-7-deaza-2′-deoxyadenosine-5′-triphosphate] | 0.8 ± 0.1 s | 0.8 ± 0.1^[a] sec | – | – | –
2 | Nc1nc(=O)n([C@H]2C[C@H](O)[C@@H](COP(=O)(O)OP(=O)(O)OP(=O)(O)O)O2)cc1COCc1ccccc1[N+](=O)[O-] [dC.I, 5-(2-nitrobenzyloxy)methyl-2′-deoxycytidine-5′-triphosphate] | 1.6 ± 0.2 s | 2.0 ± 0.3 s | – | – | DT50 values [1]: 2.0 s
3 | CC(C)(C)[C@H](OCc1cn([C@H]2C[C@H](O)[C@@H](COP(=O)(O)OP(=O)(O)OP(=O)(O)O)O2)c(=O)nc1N)c1ccccc1[N+](=O)[O-] [dC.V, 5-[(S)-1-(2-nitrophenyl)-2,2-dimethyl-propyloxy]methyl-2′-deoxycytidine-5′-triphosphate] | 1.0 ± 0.2 s | 1.2 ± 0.1 s | – | – | –
4 | COc1ccc([N+](=O)[O-])c([C@@H](OCc2cn([C@H]3C[C@H](O)[C@@H](COP(=O)(O)OP(=O)(O)OP(=O)(O)O)O3)c(=O)nc2N)C(C)(C)C)c1 [dC.VI, 5-[(S)-1-(5-methoxy-2-nitrophenyl)-2,2-dimethyl-propyloxy]methyl-2′-deoxycytidine-5′-triphosphate] | 0.6 ± 0.1 s | 0.6 ± 0.1^[a] sec | – | – | –
5 | Nc1nc2c(c(COCc3ccccc3[N+](=O)[O-])cn2[C@H]2C[C@H](O)[C@@H](COP(=O)(O)OP(=O)(O)OP(=O)(O)O)O2)c(=O)[nH]1 [dG.I, 7-(2-nitrobenzyloxy)methyl-7-deaza-2′-deoxyguanosine-5′-triphosphate] | 8.1 ± 0.2 s | 9.2 ± 0.3 s | 8.1 ± 0.2 s | 9.2 ± 0.3 s | DT50 values [1]: 9.2 s
6 | CC(C)(C)[C@H](OCc1cn([C@H]2C[C@H](O)[C@@H](COP(=O)(O)OP(=O)(O)OP(=O)(O)O)O2)c2nc(N)[nH]c(=O)c12)c1ccccc1[N+](=O)[O-] [dG.V, 7-[(S)-1-(2-nitrophenyl)-2,2-dimethyl-propyloxy]methyl-7-deaza-2′-deoxyguanosine-5′-triphosphate] | 2.9 ± 0.2 s | 3.0 ± 0.1 s | – | – | –
7 | CC(C)(C)C(OCc1cn([C@H]2C[C@H](O)[C@@H](COP(=O)(O)OP(=O)(O)OP(=O)(O)O)O2)c2nc(N)[nH]c(=O)c12)c1ccccc1[N+](=O)[O-] (stereo partly shown) [dG.V.a ds1, 7-[1-(2-nitrophenyl)-2,2-dimethyl-propyloxy]methyl-7-deaza-2′-deoxyguanosine-5′-triphosphate] | – | – | 10.7 ± 0.2 s | 11.0 ± 0.4 s | –
8 | COc1ccc([N+](=O)[O-])c(C(OCc2cn([C@H]3C[C@H](O)[C@@H](COP(=O)(O)OP(=O)(O)OP(=O)(O)O)O3)c3nc(N)[nH]c(=O)c23)C(C)(C)C)c1 (stereo partly shown) [dG.V.c ds1, 7-[1-(5-methoxy-2-nitrophenyl)-2,2-dimethyl-propyloxy]methyl-7-deaza-2′-deoxyguanosine-5′-triphosphate] | – | – | 3.0 ± 0.1 s | 3.5 ± 0.3 s | rate increases, dG.V.c compared with dG.V.a ([1]; same isomer (ds1 or ds2) of dG.V.c vs dG.V.a): 3.6 ×; faster photochemical cleavage rates compared with the corresponding 4-OMe isomers ([1]; α-tert-butyl C^7-HOMedG analogs, 5-OMe vs 4-OMe): 1.4 × fold
9 | COc1ccc([N+](=O)[O-])c([C@@H](OCc2cn([C@H]3C[C@H](O)[C@@H](COP(=O)(O)OP(=O)(O)OP(=O)(O)O)O3)c3nc(N)[nH]c(=O)c23)C(C)(C)C)c1 [dG.VI, 7-[(S)-1-(5-methoxy-2-nitrophenyl)-2,2-dimethyl-propyloxy]methyl-7-deaza-2′-deoxyguanosine-5′-triphosphate] | 0.8 ± 0.1 s | 0.8 ± 0.1 s | – | – | –
10 | COc1ccc([N+](=O)[O-])c([C@@H](OCc2cn([C@H]3C[C@H](O)[C@@H](COP(=O)(O)OP(=O)(O)OP(=O)(O)O)O3)c(=O)[nH]c2=O)C(C)(C)C)c1 [dU.VI, 5-[(S)-1-(5-Methoxy-2-nitrophenyl)-2,2-dimethyl-propyloxy]methyl-2′-deoxyuridine-5′-triphosphate] | 0.7 ± 0.1 s | 0.7 ± 0.1^[a] sec | – | – | incorporated at the first base position (DNA synthesis; by 2 min): 100%; signal at the expected second-base position (termination of DNA synthesis) (DNA synthesis; incubation times up to 20 min): No appreciable signal could be detected

Reference: US10041115B2, “3′-OH unblocked, fast photocleavable terminating nucleotides and methods for nucleic acid sequencing” (LASERGEN, INC., priority 2011, dated 2018)
